Measurements from the AptaBench aptamer set (doi:10.1093/nar/gkaf219).

How the values were obtained:
Settings in all cases: 10 mM Tris-HCl, pH 7.4
[1] = tested on: DNA aptamer or structured DNA GGGACGACTAGTGCCTTCGCGTTGTTCGGGAATCCGGTTCCGTCGTCCC
[2] = tested on: DNA aptamer or structured DNA GGGACGACGGAGGTTTAGGGTTTAGGTAGTGGGTTGAAGTCGTCCC
[3] = tested on: DNA aptamer or structured DNA GGGACGACTAGTGCCTTCGTGTTGTTCAGGAATCCGGTTCTGTCGTCCC
[4] = tested on: DNA aptamer or structured DNA GGGACGACGCGTAGGTTTCCTAGCTGTGCGTCGTTCAAGTCGTCCC
[5] = tested on: DNA aptamer or structured DNA GGGACGACGGGGATTCGCGGATTCGGAGAAAAGGGCTCGTACGTCGTCCC
[6] = tested on: DNA aptamer or structured DNA GGGACGACTAGTGCCTTCGCGTTGTTCAGGAATCCGGTTCTGTCGTCCC
[7] = tested on: DNA aptamer or structured DNA CTTACGACGGGTTCAGAGGGTCAACGGTGGTGTTGTCGTCGTAAG
[8] = tested on: DNA aptamer or structured DNA GGGACGACTAGTGCCTTCGTGTTGTTCGGGAATCCGGTTCTGTCGTCCC
[9] = tested on: DNA aptamer or structured DNA GGGACGACAGGGATTCGGTTCTCGATAAGTAGTGCCTCGTACGTCGTCCC
[10] = tested on: DNA aptamer or structured DNA GGGACGACATCGTAGGGGCACACGCTTAACGGGCTGATGTCGTCCC
[11] = tested on: DNA aptamer or structured DNA CTTACGACCTAAGGGTCTGGAGTGGTTGTTATACGCTGGTCGTAAG
[12] = tested on: DNA aptamer or structured DNA CTTACGACAGTAACGGTGGGTATATGGGATTTATGTTCGTCGTAAG
[13] = tested on: DNA aptamer or structured DNA GGGACGACAGGGATTCGCGGATTCGGAGAAAAGGGCTCGTACGTCGTCCC
[14] = tested on: DNA aptamer or structured DNA GGGACGACGGGGATTCGCGGATTCATAGAAAAGGGCTCGTCCGTCGTCCC
[15] = tested on: DNA aptamer or structured DNA GGGACGACTAGTGCCTTCGCGTTGTTCGGGAATCCGGTTCTGTCGTCCC
[16] = tested on: DNA aptamer or structured DNA GGGACGACTACAGGTCGTGCGTTGCTCGAGTTGGTGAGTGTGTCGTCCC
[17] = tested on: DNA aptamer or structured DNA GGGACGACGGGGATTCGGTTCGTCATTTGGCAGTGCCTCGTACGTCGTCCC
[18] = tested on: DNA aptamer or structured DNA GGGACGACTACAGGTCGTGCGTCGCTCGAGTTGGTGAGTGTGTCGTCCC
[19] = tested on: DNA aptamer or structured DNA GGGACGACCGTTGTTCGAGCCTTGAGTACCATTGGTAGGTCGTCCC
[20] = tested on: DNA aptamer or structured DNA GGGACGACGGGGGGAGTAATGTTTGTGTGGGGGAGCCGGTCGTCCC
[21] = tested on: DNA aptamer or structured DNA GGGACGACGCAGCAGTCCATCTCTCAGCGAGTTCGTCAGTCGTCCC
[22] = tested on: DNA aptamer or structured DNA GGGACGACGGGGGGAGTTTGTTTGTGTGGGAGGGTCCAGTCGTCCC
[23] = tested on: DNA aptamer or structured DNA GGGACGACATGGGATGGAGCTATGCGAGCATGTGGTGTGTCGTCCC
[24] = tested on: DNA aptamer or structured DNA GGGACGACAGAATGGCAGCATTGGTGAGTTGTTTGCCTGTCGTCCC
[25] = tested on: DNA aptamer or structured DNA GGGACGACGGCTTAGCAAAGCTAGTAGGGGTCCACGCTGTCGTCCC
[26] = tested on: DNA aptamer or structured DNA GGGACGACAAAATGGCAGCATTGGTGACGGAGTTGCTTGTCGTCCC
[27] = tested on: DNA aptamer or structured DNA GGGACGACTGGCGCCGGATTCCCTAAGGTACACGGACTGTCGTCCC
[28] = tested on: DNA aptamer or structured DNA GGGACGACGCGTACCTGTGGTAGTCGTACGTCGTTCAAGTCGTCCC
[29] = tested on: DNA aptamer or structured DNA GGGACGACCGCGTAGGGGAACACGCTTGCAGGGCTGAGGTCGTCCC
[30] = tested on: DNA aptamer or structured DNA GGGACGACGCGTACCTGTGGTAGTTGTACGTCGTTCAAGTCGTCCC
[31] = tested on: DNA aptamer or structured DNA GGGACGACTAGCCCTAGCGTTGTTCGAGTCCATGAGTAGTCGTCCC
[32] = tested on: DNA aptamer or structured DNA GGGACGACTAGCGCATGCGTTGTTCGAGGATACGAGTAGTCGTCCC
[33] = tested on: DNA aptamer or structured DNA GGGACGACCAGAATGGAAGCATTGGTTGCCGCAGGGTGCCGCAGTCGTCCC
For binding call in this document: call rule not given here.

Row | SMILES | binding call [2] | binding call [3] | binding call [5] | binding call [6] | binding call [8] | binding call [9] | binding call [10] | binding call [11] | binding call [12] | binding call [13] | binding call [14] | binding call [15] | binding call [20] | binding call [28] | binding call [7] | binding call [18] | binding call [24] | other results
1 | CN(C)CCOC(c1ccccc1)c1ccccc1 | binds | no binding | no binding | no binding | no binding | no binding | no binding |  |  |  |  |  |  |  | no binding |  |  | binding call [1]: no binding; binding call [4]: no binding
2 | C=CCN1CC[C@]23c4c5ccc(O)c4O[C@H]2C(=O)CC[C@@]3(O)[C@H]1C5 |  |  | no binding | no binding | no binding | no binding | binds |  |  |  |  |  | no binding | no binding |  | no binding | no binding | binding call [23]: no binding; binding call [19]: no binding; binding call [25]: binds; binding call [26]: no binding; binding call [4]: no binding; binding call [27]: no binding; binding call [29]: no binding; binding call [30]: no binding; binding call [31]: no binding
3 | NCCc1c[nH]c2ccc(O)cc12 |  | no binding | no binding | no binding | no binding | no binding |  |  |  | no binding | no binding | binds |  |  | no binding | no binding |  | binding call [1]: no binding
4 | CN1CC[C@]23c4c5ccc(O)c4O[C@H]2[C@@H](O)C=C[C@H]3[C@H]1C5 |  |  |  |  |  |  |  |  |  |  |  |  |  |  |  |  |  | Kd [1]: 19.5 µM; Kd [14]: 2.5 µM; Kd [3]: 3.5 µM; Kd [5]: 2.3 µM; Kd [17]: 1.5 µM; Kd [18]: 3.5 µM; Kd [6]: 13.8 µM; Kd [8]: 1.9 µM; Kd [9]: 13.3 µM
5 | CC(=O)Oc1ccc2c3c1O[C@H]1[C@@H](OC(C)=O)C=C[C@H]4[C@@H](C2)N(C)CC[C@@]341 | no binding |  |  |  |  |  |  | no binding |  |  |  |  |  |  | no binding |  | no binding | Kd [19]: 2.28 µM; Kd [4]: 4.57 µM; Kd [28]: 4.52 µM; Kd [32]: 2.67 µM; Kd [30]: 4.13 µM; Kd [31]: 3.31 µM

More lines, main results first:

Row | binding call [2] | binding call [3] | binding call [5] | binding call [6] | binding call [8] | binding call [9] | binding call [10] | binding call [11] | binding call [12] | binding call [13] | binding call [14] | binding call [15] | binding call [20] | binding call [28] | SMILES | binding call [7] | binding call [18] | binding call [24] | other results
6 |  | binds | no binding | no binding | no binding | no binding |  | no binding | no binding | no binding | no binding | binds |  |  | NCCc1ccc(O)c(O)c1 | no binding | binds |  | binding call [16]: binds; binding call [17]: no binding
7 |  |  |  |  |  |  | no binding |  | binds |  |  |  | no binding |  | Cn1c(=O)c2c(ncn2C)n(C)c1=O |  |  |  | binding call [19]: no binding; binding call [21]: no binding; binding call [22]: binds
8 |  |  |  |  |  |  |  |  | no binding |  |  |  |  | no binding | CC(=O)Nc1ccc(O)cc1 |  |  |  | binding call [21]: binds; binding call [22]: binds
9 | no binding | no binding | no binding | no binding | no binding | no binding | no binding | no binding | no binding | no binding | no binding | binds | no binding | no binding | CCN(CC)CCOC(=O)c1ccc(N)cc1 |  | no binding | no binding | binding call [33]: no binding; binding call [16]: no binding; binding call [17]: no binding; binding call [32]: no binding; binding call [29]: no binding; binding call [31]: no binding
